In patent publication US4264590A, “Antibacterial peptide” (Abbott Laboratories, priority 1980, dated 1981):
“And” between values parts separate entries of the source, which are not always exact repeats. Identical values can stand only once.

How the values were obtained:
S. aureus (Smith) = assay: mouse protection test, CD50 (Table III); assay type: in vivo; conditions: for F.I.C. Index / CD50 (mg/kg) Combination: S. aureus (Smith) in mice, dipeptide:D-cycloserine 10:1; for CD50 (mg/kg) Combination: amount of peptide only listed, D-cycloserine is 10% of it; for CD50 (mg/kg) Peptide: mice infected i.p. with S. aureus (Smith), dosed subcutaneously, 7 days survival, peptide alone
Description: Charles River mice, weighing approximately 20 g. each, are infected intraperitoneally with 10-100 times the LD of the infecting organism. At predetermined intervals post-infection, e.g., 1 and 5 hours, mice are dosed subcutaneously with graded doses of the halogenated peptide, antibiotic and combination thereof. The number of mice surviving each treatment for 7 days post-infection is observed and the CD50 is calculated. The fractional inhibitory concentration (F.I.C.) for each combination is calculated in the usual manner.
In this table, the following infecting microorganisms were used:
The infecting organisms are listed by the above code; the compounds are listed by their Example number. In all instances, the dipeptide and D-cycloserine were tested at a ratio of 10:1. The CD50 combination column lists only the amount of peptide present; the D-cycloserine amount is 10% of the listed amount.

E. coli (Juhl) = assay: serial dilution in synthetic medium in test tubes, MIC and F.I.C. index (Table II); assay type: cell-based; conditions: for F.I.C. Index / MIC ppm Pep/Antib., antibiotic part / MIC ppm Pep/Antib., peptide part: combination with D-cycloserine; for MIC ppm Antibiotic: antibiotic alone
Description: The halogenated peptides alone, the antibiotic alone or mixtures of the halogenated peptides and selected antibiotics are prepared in sterile concentrated aqueous solutions at the desired ratios. Serial dilutions are made to give a range of concentrations of the test substances. Samples of the dilutions are mixed with an appropriate sterile synthetic medium in test tubes. The tubes are then inoculated with an appropriate test organism and incubated at 35°-37° C. for 16-20 hours. Minimum inhibitory concentrations, i.e., that concentration which inhibits visible growth, are read and the fractional inhibitory concentration indices (F.I.C.) are calculated. In all instances, E. coli (Juhl) was used as the infecting microorganism.

[1] = E. coli (Juhl), 35-37° C., 16-20 hours

SMILES | F.I.C. Index (S. aureus (Smith)) | CD50 (mg/kg) Combination (S. aureus (Smith)) | CD50 (mg/kg) Peptide (S. aureus (Smith)) [mg/kg] | further results
CC(C)[C@H](N)C(=O)N[C@H](CF)C(=O)O [Example 3, L-Val-βF-D-Ala] | 0.15 | 1.0 mg/kg | 10 | 
N[C@@H](Cc1ccccc1)C(=O)N[C@H](CF)C(=O)O [Example 5, L-Phe-βF-D-Ala] | 0.99 | 13.6 mg/kg | 14.4 | 
NCCCC[C@H](N)C(=O)N[C@H](CF)C(=O)O [Example 6, L-Lys-βF-D-Ala] | 0.08 and 0.13 | 6.8 mg/kg and 4.0 mg/kg |  | 
O=C(N[C@H](CF)C(=O)O)[C@@H]1CCCN1 [Example 7, L-Pro-βF-D-Ala] | 0.35 | 3.7 mg/kg | 12.2 | 
N[C@@H](CO)C(=O)N[C@H](CF)C(=O)O [Example 8, L-Ser-βF-D-Ala] | 0.13 | 5.2 mg/kg | 48 | F.I.C. Index (E. coli (Juhl); ratio Pep/Antib. 1:1): 0.008; MIC ppm Pep/Antib., antibiotic part (E. coli (Juhl); ratio Pep/Antib. 1:1): 0.1 ppm; MIC ppm Pep/Antib., peptide part (E. coli (Juhl); ratio Pep/Antib. 1:1): 0.1 ppm; F.I.C. Index (E. coli (Juhl); ratio Pep/Antib. 1:8): 0.03; MIC ppm Pep/Antib., antibiotic part (E. coli (Juhl); ratio Pep/Antib. 1:8): 0.39 ppm; MIC ppm Pep/Antib., peptide part (E. coli (Juhl); ratio Pep/Antib. 1:8): 0.05 ppm; F.I.C. Index (E. coli (Juhl); ratio Pep/Antib. 8:1): 0.004; MIC ppm Pep/Antib., antibiotic part (E. coli (Juhl); ratio Pep/Antib. 8:1): 0.05 ppm; MIC ppm Pep/Antib., peptide part (E. coli (Juhl); ratio Pep/Antib. 8:1): 0.39 ppm; MIC ppm Peptide (E. coli (Juhl); peptide alone, E. coli (Juhl), 35-37° C., 16-20 hours): > 800 ppm
NCC(=O)N[C@H](CF)C(=O)O [Example 10, Gly-βF-D-Ala] | 0.27 | 4.7 mg/kg | 19 | 
CNCC(=O)N[C@H](CF)C(=O)O [Example 11, Sar-βF-D-Ala] | 0.24 | 6.2 mg/kg | 29 | 
NCC(=O)N[C@H](CCl)C(=O)O [Example 12, Gly-βCl-D-Ala] | 0.30 | 17.4 mg/kg | 155 | 
COC(=O)[C@@H](CF)NC(=O)[C@H](C)N.Cl [Example 15, L-Ala-βF-D-Ala-OMe.HCl] | 0.32 | 5.5 mg/kg | 18 | 
CCC(N)C(=O)N[C@H](CF)C(=O)O (stereo partly drawn) [Example 17, L-αNH2 -But-βF-D-Ala] | 0.20 | 2.6 mg/kg | 13.7 | 
CCCCCCC(N)C(=O)N[C@H](CF)C(=O)O (stereo partly drawn) [Example 20, D,L-α-amino-octanoyl-βF-D-Ala] | 0.10 | 8.6 mg/kg | 75.9 | 
CC1(C)S[C@@H]2[C@H](NC(=O)C(C(=O)O)c3ccccc3)C(=O)N2[C@H]1C(=O)O (some centres unmarked) [carbencillin, reference compound] |  |  |  | MIC ppm Antibiotic (E. coli (Juhl); [1]): 6.2 ppm
CC(=O)OCC1=C(C(=O)O)N2C(=O)[C@@H](NC(=O)Cc3cccs3)[C@H]2SC1 [cephalothin, reference compound] |  |  |  | MIC ppm Antibiotic (E. coli (Juhl); [1]): 6.2 ppm
